Test results published in patent US20240216248A1, “MICROBIAL GLYCOLIPIDS” (ANALYTICON DISCOVERY GMBH, priority 2021, published 2024).
In brackets after ≈: the same amount, converted by molar mass.

Legend:
Emulsification index E24 = type: physicochemical; conditions: surfactant solution 100 mg/liter; 2 ml hexadecane to 4 ml aqueous sample; measured 24 h later
Procedure: The emulsification index was determined by using a modification of a method described by Cooper and Goldenberg (APPLIED AND ENVIRONMENTAL MICROBIOLOGY, February 1987. p. 224-229). Surfactant solutions were prepared at 100 mg/liter. Emulsifier activity was measured by adding 2 ml of hexadecane to 4 ml of aqueous sample and vortexing at high speed for 1 min. Measurements were made 24 h later. The emulsion index (E24) was calculated using the equation E24(%)=[(height of emulsion layer)/(total height)]×100. Lutensol […] was used as positive control.

Saccharomyces cerevisiae = assay: Antimicrobial activity, micro broth dilution assay; type: cell-based
Procedure: (§1) The antimicrobial activity of selected compounds was determined by micro broth dilution assay.

Bacillus subtilis = assay: Antimicrobial activity, micro broth dilution assay; type: cell-based
Procedure: as §1

Aspergillus ruber = assay: Antimicrobial activity, micro broth dilution assay; type: cell-based
Procedure: as §1

Brettanomyces sp = assay: Antimicrobial activity, micro broth dilution assay; type: cell-based
Procedure: as §1

Pseudomonas aeruginosa = assay: Antimicrobial activity, micro broth dilution assay; type: cell-based
Procedure: as §1

Penicillium roquefortii = assay: Antimicrobial activity, micro broth dilution assay; type: cell-based
Procedure: as §1

Byssochlamys nivea = assay: Antimicrobial activity, micro broth dilution assay; type: cell-based; conditions: Paecilomyces niveus
Procedure: as §1

Latilactobacillus sakei = assay: Antimicrobial activity, micro broth dilution assay; type: cell-based
Procedure: as §1

Zygosaccharomyces bailii = assay: Antimicrobial activity, micro broth dilution assay; type: cell-based
Procedure: as §1

Penicillium paneum = assay: Antimicrobial activity, micro broth dilution assay; type: cell-based
Procedure: as §1

Penicillium chrysogenum = assay: Antimicrobial activity, micro broth dilution assay; type: cell-based
Procedure: as §1

Staphylococcus aureus = assay: Antimicrobial activity, micro broth dilution assay; type: cell-based
Procedure: as §1

[1] = tested on: Aspergillus montevidensis; assay: Antimicrobial activity, micro broth dilution assay; type: cell-based
Procedure: as §1

Candida parapsilosis = assay: Antimicrobial activity, micro broth dilution assay; type: cell-based; conditions: Lodderomyces parapsilosis
Procedure: as §1

Escherichia coli = assay: Antimicrobial activity, micro broth dilution assay; type: cell-based
Procedure: as §1

Leuconostoc carnosum = assay: Antimicrobial activity, micro broth dilution assay; type: cell-based
Procedure: as §1

Penicillium expansum = assay: Antimicrobial activity, micro broth dilution assay; type: cell-based
Procedure: as §1

Neosartorya sp. = assay: Antimicrobial activity, micro broth dilution assay; type: cell-based
Procedure: as §1

For `CC(N)C(O)CCCCCCCCCCCCCCCCC(OC1OC(CO)C(O)C(O)C1O)C(C)O` (stereo not drawn) [B], the E24 index (Emulsification index E24) was 99%, the MIC (Saccharomyces cerevisiae) was 125 µg/mL (≈ 233 µM) and the MIC (Bacillus subtilis) was 250 µg/mL (≈ 467 µM). For the same molecule, the MIC (Aspergillus ruber) was 500 µg/mL (≈ 933 µM), the MIC (Brettanomyces sp) was 125 µg/mL (≈ 233 µM) and the MIC (Pseudomonas aeruginosa) was 250 µg/mL (≈ 467 µM). The MIC (Penicillium roquefortii) was 250 µg/mL (≈ 467 µM), the MIC (Byssochlamys nivea) was 500 µg/mL (≈ 933 µM) and the MIC (Latilactobacillus sakei) was 500 µg/mL (≈ 933 µM). The MIC (Zygosaccharomyces bailii) was 125 µg/mL (≈ 233 µM), the MIC (Penicillium paneum) was 500 µg/mL (≈ 933 µM) and the MIC (Penicillium chrysogenum) was 125 µg/mL (≈ 233 µM). It also gave an MIC (Staphylococcus aureus) of 250 µg/mL (≈ 467 µM), an MIC [1] of 500 µg/mL (≈ 933 µM) and an MIC (Candida parapsilosis) of 250 µg/mL (≈ 467 µM). For the same molecule, the MIC (Escherichia coli) was 600 µg/mL (≈ 1120 µM), the MIC (Leuconostoc carnosum) was greater than 500 µg/mL and the MIC (Penicillium expansum) was 250 µg/mL (≈ 467 µM). It also gave an MIC (Neosartorya sp.) of 125 µg/mL (≈ 233 µM).

In the case of `CC(O)C(CCCCCCCCCCCCCCCCC(O)C(C)NCC(=O)O)OC1OC(CO)C(O)C(O)C1O` (stereo not drawn) [C], the E24 index (Emulsification index E24) is reported as 100%.

`CC(N)C(O)CCCCCCCCCCCCCCC(OC1OC(CO)C(O)C(O)C1O)C(C)O` (stereo not drawn) [Compound A] showed an E24 index (Emulsification index E24) of 95%, an MIC (Saccharomyces cerevisiae) of 250 µg/mL (≈ 492 µM) and an MIC (Bacillus subtilis) of 250 µg/mL (≈ 492 µM). The MIC (Aspergillus ruber) was 125 µg/mL (≈ 246 µM), the MIC (Brettanomyces sp) was 500 µg/mL (≈ 985 µM) and the MIC (Pseudomonas aeruginosa) was 600 µg/mL (≈ 1180 µM). The MIC (Penicillium roquefortii) was 125 µg/mL (≈ 246 µM), the MIC (Byssochlamys nivea) was greater than 500 µg/mL and the MIC (Latilactobacillus sakei) was 125 µg/mL (≈ 246 µM). It also gave an MIC (Zygosaccharomyces bailii) of 125 µg/mL (≈ 246 µM), an MIC (Penicillium paneum) of 250 µg/mL (≈ 492 µM) and an MIC (Penicillium chrysogenum) of 125 µg/mL (≈ 246 µM). It also gave an MIC (Staphylococcus aureus) of 250 µg/mL (≈ 492 µM), an MIC [1] of 250 µg/mL (≈ 492 µM) and an MIC (Candida parapsilosis) of 500 µg/mL (≈ 985 µM). The MIC (Escherichia coli) was 600 µg/mL (≈ 1180 µM), the MIC (Leuconostoc carnosum) was 500 µg/mL (≈ 985 µM) and the MIC (Penicillium expansum) was 250 µg/mL (≈ 492 µM). For the same molecule, the MIC (Neosartorya sp.) was 500 µg/mL (≈ 985 µM).

With `CC(O)C(CCCCCCCCCCCCCCCCC(O)C(C)NC=O)OC1OC(CO)C(O)C(O)C1O` (stereo not drawn) [Compound E] the E24 index (Emulsification index E24) was 65%.

In the case of `CC(N)C(O)C(O)CCCCCCCCCCCCCCCC(OC1OC(CO)C(O)C(O)C1O)C(C)O` (stereo not drawn) [Compound I], the E24 index (Emulsification index E24) is reported as 95%.

Work on `CC(O)C(CCCCCCCCCCCCCCCCC(O)C(C)OC1OC(CO)C(O)C(O)C1O)OC1OC(CO)C(O)C(O)C1O` (stereo not drawn) [D] yielded an E24 index (Emulsification index E24) of 90%.

`CC(O)C(O)CCCCCCCCCCCCCCCCC(OC1OC(CO)C(O)C(O)C1O)C(C)O` (stereo not drawn) [F] gave an E24 index (Emulsification index E24) of 100%.

`CC(O)C(CCCCCCCCCCCCCCCCC(O)C(C)NC(=O)CCC(=O)O)OC1OC(CO)C(O)C(O)C1O` (stereo not drawn) [H] showed an E24 index (Emulsification index E24) of 94%.

With `CC(N)C(O)/C=C/CCCCCCCCCCCCCCC(OC1OC(CO)C(O)C(O)C1O)C(C)O` (stereo not drawn) [J] the E24 index (Emulsification index E24) was 96%.
